pEC50, pIC50: −log10 of the molar value. Non-standard residues stand in square brackets, D forms with d. Residues, ends and D or L forms follow the SMILES beside them. No end group written: not given here. *: point of attachment. Succinimide(1-Et,3-yl) = CCN1C(=O)CC(*)C1=O; Palmitoyl = CCCCCCCCCCCCCCCC(=O)*
Key:
[1] = target: T1, Mouse NMUR1-CTG (Mus musculus, UniProt O55040); test: FLIPR calcium mobilization assay, mouse NMUR1-CTG; format: cell-based; set-up: expressed in transfected cells; host or cells: FLP-In CHO or HEK-293 FLP-In cells (pcDNA5); conditions: for pEC50: FLIPR
T1 sequence (O55040 1-428): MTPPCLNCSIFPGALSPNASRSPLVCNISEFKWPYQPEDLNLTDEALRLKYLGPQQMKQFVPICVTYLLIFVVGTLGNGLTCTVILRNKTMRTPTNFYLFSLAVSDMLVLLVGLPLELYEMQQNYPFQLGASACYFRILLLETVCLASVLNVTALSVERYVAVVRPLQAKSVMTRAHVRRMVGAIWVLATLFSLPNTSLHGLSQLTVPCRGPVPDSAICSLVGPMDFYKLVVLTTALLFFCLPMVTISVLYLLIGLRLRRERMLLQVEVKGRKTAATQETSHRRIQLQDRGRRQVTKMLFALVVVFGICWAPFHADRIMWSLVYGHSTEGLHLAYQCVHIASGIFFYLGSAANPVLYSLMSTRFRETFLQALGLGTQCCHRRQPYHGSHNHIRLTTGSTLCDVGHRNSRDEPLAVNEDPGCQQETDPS
From the text: (§1) Human, mouse or rat cDNAs encoding NMUR1 or NMUR2 (as described in Howard et al. Nature 406: 70-74 (2000) were subcloned in pcDNA5 (Invitrogen) and transfected into FLP-In CHO cells and HEK-293 FLP-In cells purchased from Invitrogen (Carlsbad, Calif.) using lipofectamine (Invitrogen). The Flp-In system allows integration and expression of a particular gene of interest at a specific genomic location utilizing the Flp recombinase from yeast. The transfected cells were selected by growth in medium containing 200 μg/mL hygromycin (Invitrogen). Populations were frozen at early passage numbers, and these stocks were used for further studies. Stable clones that expressed the mRNAs were identified functionally by FLIPR as well as by RT-PCR. […] Two different rodent NMUR1 cell lines were thus generated: one with the codon as predicted from the genomic databases and another cell line with an engineered methionine (ATG) as the start codon. Additionally, stable cell lines expressing the human receptors were generated in HEK-293/aeq17 cells which stably express the aequorin gene under the CMV promoter. The human NMUR2 cDNA was cloned into pcDNA3.1 and human NMUR1 was subcloned into pIRES-puro (Clontech, Mountain View, Calif.), after transfection cells were selected in media containing G418 and either hygromycin (NMUR2) or puromycin (NMUR1).
(§2) The NMU receptors signal primarily through Gαq/11 proteins; therefore calcium mobilization assays can be utilized for functional activity.
(§3) Stable cell lines expressing human and or rodent NMUR1 or human NMUR2 receptors were plated at a density of 12,000 cells per well overnight on poly-lysine coated 384-well black-walled plates. The following day, the media was removed from the plates and the cells were subsequently loaded with Fluo-3 (Molecular Probes), a calcium sensitive dye, diluted in FLIPR buffer (1× Hank's buffered saline containing 20 mM HEPES, 0.1% BSA, 2.5 mM probenecid (Sigma) and 1.6 mM TR40). All reagents are from Invitrogen unless otherwise noted. Peptide stocks were resuspended in DMSO at a stock concentration of 2 mM and diluted in FLIPR buffer on the day of the experiment to a 4 μM working stock solution.
(§4) After a 90 minute incubation at room-temperature, cell plates were loaded onto a FLIPR (Molecular Devices) to monitor cellular fluorescence (excitation=488 nm; emission=540 nm) before and after compound/peptide addition. Eight to twelve point dose responses were tested on NMUR-expressing cell lines using FLIPR with 1 μM peptide as the highest dose. The response after peptide addition was taken as the maximum fluorescence units minus the fluorescence immediately prior to stimulation for each well. EC50 values were calculated using GraphPad Prism (San Diego, Calif.) software.
(§5) In vitro responses of Neuromedin U receptor agonists (NMU1 to NMU25) in the FLIPR assay for human (Table 3), mouse (Table 4) and rat (Table 5) NMUR1 and NMUR2. EC50s are reported in nM values. Percent activity refers to the maximum response at 1 μM compared to the hNMU-25 response at the same concentration. NT=not tested.

[2] = target: T2, hNMUR2 (Homo sapiens, UniProt Q9GZQ4); test: 125I-hNMU-25 binding assay, human NMUR2 membranes; set-up: expressed in transfected cells; host or cells: HEK-293 FLP-In cells (pcDNA5); HEK-293/aeq17 lines (pcDNA3.1) were also made; % inhibition of NMU-25 binding / % Activity: concentration or dose not given beside the values
T2 sequence (Q9GZQ4 whole entry): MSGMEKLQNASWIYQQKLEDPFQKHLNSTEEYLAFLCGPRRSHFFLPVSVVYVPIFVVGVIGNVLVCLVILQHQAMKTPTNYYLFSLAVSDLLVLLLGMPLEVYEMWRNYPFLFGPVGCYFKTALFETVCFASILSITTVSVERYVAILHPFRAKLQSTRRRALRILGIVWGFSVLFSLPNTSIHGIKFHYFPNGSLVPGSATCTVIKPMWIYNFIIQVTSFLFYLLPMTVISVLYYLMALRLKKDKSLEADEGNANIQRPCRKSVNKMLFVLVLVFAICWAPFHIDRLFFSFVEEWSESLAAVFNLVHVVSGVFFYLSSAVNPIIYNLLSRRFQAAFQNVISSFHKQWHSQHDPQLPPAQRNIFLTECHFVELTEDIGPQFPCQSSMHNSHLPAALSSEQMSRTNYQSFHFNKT
Procedure: Confluent cell monolayers expressing NMU receptors (the HEK cells described above) were harvested with phosphate buffered saline, collected by centrifugation, and resuspended in membrane buffer (50 mM TrisCl pH 7.4, 5 mM MgCl2, 1× Protease Inhibitor Cocktail, 10 μM phosphoramidon). After the cell pellet was homogenized, the solution was centrifuged at 18,000 rpm for 20 minutes at 4° C. The pellet was resuspended in membrane buffer to yield a final concentration of 0.5-5 μg/μL of membrane and stored at −80° C.
Experiments were performed in assay buffer (25 mM TrisCl, pH 7.4, 10 mM MgCl2, 2 mM EDTA, 1× Protease Inhibitor Cocktail, 100 μg/mL Bacitricin, 10 μM phosphoramidon) in 200 μL volumes in a 96-well format using 2-5 μg of membrane and 0.1 nM ^125I-hNMU-25 (about 12,000 cpm/well). For non-specific binding, 1 μM hNMU-25 was added. About 5 μL of peptides were added to measure antagonist activity, and the entire reaction was incubated at room temperature with shaking for 80 minutes. The reaction was terminated by rapid filtration through 0.3% poly-ethylenimine presoaked Millipore 96-well filter plates and washed with ice-cold buffer (5 mM TrisCl pH 7.4, 10 mM MgCl2, 2.5 mM EDTA, 0.04% Triton X-100). Plates were air-dried overnight at room temperature and recovered radioactivity was determined by standard scintillation counting. IC50 values were determined using GraphPad Prism software.
Concentration-response curves and radioligand-binding data were fitted using Prism (GraphPad Software). Results are summarized below in Tables 8 and 9.

[3] = target: T2, hNMUR2; test: FLIPR calcium mobilization assay, human NMUR2; format: cell-based; set-up: expressed in transfected cells; host or cells: FLP-In CHO or HEK-293 FLP-In cells (pcDNA5); HEK-293/aeq17 lines (pcDNA3.1) were also made; conditions: for pEC50: FLIPR
From the text: as §1, §2, §3, §4, §5

[4] = maximum response at 1 μM compared to hNMU-25, mouse NMUR1-CTG
[5] = maximum response at 1 μM compared to hNMU-25, human NMUR2

| Compound | % Activity [1, 4] | % Activity [3, 5] | pEC50 ([1]; mouse NMUR1-CTG) | pEC50 ([3]; human NMUR2) | further results |
| --- | --- | --- | --- | --- | --- |
| CC(C)C[C@@H](NC(=O)[C@H](Cc1ccccc1)NC(=O)[C@H](Cc1ccc(O)cc1)NC(=O)CNC(=O)[C@H](CCCNC(=N)N)NC(=O)[C@H](CO)NC(=O)[C@H](CCC(N)=O)NC(=O)[C@H](CO)NC(=O)[C@H](C)NC(=O)[C@H](Cc1ccccc1)NC(=O)[C@@H]1CCCN1C(=O)[C@H](CO)NC(=O)[C@H](CCC(N)=O)NC(=O)[C@H](Cc1ccccc1)NC(=O)[C@H](CCC(=O)O)NC(=O)[C@H](CCC(=O)O)NC(=O)[C@H](CC(=O)O)NC(=O)[C@@H](NC(=O)[C@H](CCCNC(=N)N)NC(=O)[C@@H](N)Cc1ccccc1)C(C)C)C(=O)N[C@@H](Cc1c[nH]c2ccccc12)C(=O)N[C@@H](CCCNC(=N)N)C(=O)N1CCC[C@H]1C(=O)N[C@@H](CCCNC(=N)N)C(=O)N[C@@H](CC(N)=O)C(N)=O [Agonist H] (H-FRVDEEFQSPFASQSRGYF[dL]WRPRN-NH2; N-terminus assumed) |  |  |  |  | pIC50 ([1]; functional data, mouse R1-CTG): 7.18; % Activity ([1]; functional, mouse R1-CTG, relative to native hNMU responses): 77%; % Activity ([2]; Table 8, HEK-hR2, binding): 7%; pIC50 ([2]; binding, human R2): 6.11; % inhibition of NMU-25 binding ([2]; human R2): 7%; % Activity ([3]; functional, human R2, relative to native hNMU responses): 0% |
| CCN1C(=O)CC(SC[C@H](NC(C)=O)C(=O)N[C@@H](CSC2CC(=O)N(CC)C2=O)C(=O)N[C@@H](Cc2ccccc2)C(=O)N[C@@H](CCCNC(=N)N)C(=O)N[C@H](C(=O)N[C@@H](CC(=O)O)C(=O)N[C@@H](CCC(=O)O)C(=O)N[C@@H](CCC(=O)O)C(=O)N[C@@H](Cc2ccccc2)C(=O)N[C@@H](CCC(N)=O)C(=O)N[C@@H](CO)C(=O)N2CCC[C@H]2C(=O)N[C@@H](Cc2ccccc2)C(=O)N[C@@H](C)C(=O)N[C@@H](CO)C(=O)N[C@@H](CCC(N)=O)C(=O)N[C@@H](CO)C(=O)N[C@@H](CCCNC(=N)N)C(=O)NCC(=O)N[C@@H](Cc2ccc(O)cc2)C(=O)N[C@@H](Cc2ccccc2)C(=O)N[C@@H](CC(C)C)C(=O)N[C@@H](Cc2ccccc2)C(=O)N[C@@H](CCCNC(=N)N)C(=O)N2CCC[C@H]2C(=O)N[C@@H](CCCNC(=N)N)C(=O)N[C@@H](CC(N)=O)C(N)=O)C(C)C)C1=O (stereo partly drawn) [NMU22] (Ac-C(Succinimide(1-Et,3-yl))C(Succinimide(1-Et,3-yl))FRVDEEFQSPFASQSRGYFLFRPRN-NH2) | 100% | 105% |  |  |  |
| CCCCCCCCCCCCCCCC(=O)N[C@@H](CSC1CC(=O)N(CC)C1=O)C(=O)N[C@@H](Cc1ccccc1)C(=O)N[C@@H](CCCNC(=N)N)C(=O)N[C@H](C(=O)N[C@@H](CC(=O)O)C(=O)N[C@@H](CCC(=O)O)C(=O)N[C@@H](CCC(=O)O)C(=O)N[C@@H](Cc1ccccc1)C(=O)N[C@@H](CCC(N)=O)C(=O)N[C@@H](CO)C(=O)N1CCC[C@H]1C(=O)N[C@@H](Cc1ccccc1)C(=O)N[C@@H](C)C(=O)N[C@@H](CO)C(=O)N[C@@H](CCC(N)=O)C(=O)N[C@@H](CO)C(=O)N[C@@H](CCCNC(=N)N)C(=O)NCC(=O)N[C@@H](Cc1ccc(O)cc1)C(=O)N[C@@H](Cc1ccccc1)C(=O)N[C@@H](CC(C)C)C(=O)N[C@@H](Cc1ccccc1)C(=O)N[C@@H](CCCNC(=N)N)C(=O)N1CCC[C@H]1C(=O)N[C@@H](CCCNC(=N)N)C(=O)N[C@@H](CC(N)=O)C(N)=O)C(C)C (stereo partly drawn) [NMU24] (Palmitoyl-C(Succinimide(1-Et,3-yl))FRVDEEFQSPFASQSRGYFLFRPRN-NH2) | 56.1% | 63.9% |  |  |  |
| Ac-C2FQSPFASQSRGYFLFRPRN-CONH2 ({Ac-C(PEG 40 kDa)}-FQSPFASQSRGYFLFRPRN-NH2; not fully specified; printed as Ac-C2FQSPFASQSRGYFLFRPRN-CONH2) [NMU20, C2 = Cys(PEG)240 kDa] | 65.4% |  | 6.32 | 7.89 |  |
| Ac-C4FRVDEEFQSPFASQSRGYFLFRPRN-CONH2 ({Ac-C(PEG 20 kDa)}-FRVDEEFQSPFASQSRGYFLFRPRN-NH2) [NMU21, C4 = Cys(PEG)20 kDa] | 90.8% | 97.9% | 7.25 | 7.62 |  |
| Ac-FRVDEEFQSPFASQSRGYFLFRPRN-NH2 [NMU2] | 100% | 97.4% |  | 8.59 |  |
| Ac-FRVDEEFQSPFASQSRPYFLFRPRN-NH2 [NMU5] | 100% | 98.1% |  |  |  |
| GYFLFRPRN-NH2 [NMU3] | 100% | 100% |  |  |  |
| H-FRVDEEFQSPFASQSRPYFLFRPRN-NH2 [NMU4] | 100% | 100% |  | 8.59 |  |
| Pam-C2FRVDEEFQSPFASQSRGYFLFRPRN-CONH2 ({Palmitoyl-C(PEG 40 kDa)}-FRVDEEFQSPFASQSRGYFLFRPRN-NH2) [NMU25, Pam = palmitoyl; C2 = Cys(PEG)240 kDa] |  | 98.8% | 7.22 | 7.36 |  |
